Data set [1] has as its system SIRPα signalling induced by Raji cells. The data set can be described thus: Assay B: SIRPα signalling assay using Raji cells. Type of data set: cell-based. The following applies: Homo sapiens; compounds of the invention; Raji cells 48 h, Jurkat PathHunter SIRPαV1 reporter cells 5 h; read-out: Inhibition of SIRPα signalling induced by Raji cells: IC50. How it is done:
(§1) Two cell types are independently used: the Raji cell line (lymphoblast-like human cell line derived from B lymphocytes from a Burkitt's lymphoma patient in 1963) and A549 cells (adenocarcinoma human alveolar basal epithelial cells).
(§2) Test compounds were dissolved in 100% DMSO and serially diluted into a white 384-well microtiter cell culture plate (PerkinElmer #60076780 in case of Raji assay; PDL-coated plates Greiner #781945 in case of A549 assay). 5000 Raji cells (ATCC #CC86) or 5000 A549 cells (ATCC #CCL-185) in Assay Complete Cell Plating reagent 30 (DiscoverX 93-0563R30B) were added per well. The assay plate was incubated for 48 h at 37° C., 95% humidity and 5% CO2. 15000 reporter cells (Jurkat PathHunter SIRPαV1, DiscoverX #93-1135C19) were added to each well, and the plate was incubated for 5 h at 37° C., 95% humidity and 5% CO2. Bioassay reagent 1 of the PathHunter Bioassay detection kit (DiscoverX 93-0001) was added to each well of the plate using a multichannel pipette followed by a 15 min incubation at room temperature. Afterwards bioassay reagent 2 was added followed by 60 min incubation at room temperature (incubation in the dark).
(§3) The analysis of the data was performed using the luminescence signal generated by beta-galactosidase in the PathHunter reporter cell line. The luminescence measurement was done using a Pherastar Multi-Mode Reader. Dose-response curves & IC50 data were calculated with 4-parameter sigmoidal dose response formula.

A short description of data set [2]: Assay C: permeability in CACO-2 cells. Format: in vitro ADME. The note with it: human, pH 7.2, compounds of the invention; for efflux ratio at 2 h: Caco-2, permeability B-A / permeability A-B; for Papp A→B at 2 h: Caco-2, apical to basolateral. How it is done: Caco-2 cells (1-2×10^5 cells/1 cm^2 area) are seeded on filter inserts (Costar transwell polycarbonate or PET filters, 0.4 μm pore size) and cultured (DMEM) for 10 to 25 days. Compounds are dissolved in appropriate solvent (like DMSO, 1-20 mM stock solutions). […] The transport solution (TL) is applied to the apical or basolateral donor side for measuring A-B or B-A permeability (3 filter replicates), respectively. Samples are collected at the start and end of experiment from the donor and at various time intervals for up to 2 hours also from the receiver side for concentration measurement by HPLC-MS/MS or scintillation counting. Sampled receiver volumes are replaced with fresh receiver solution.
Efflux ratio(ER)=permeabilityB−A/permeabilityA−B

Data set [3] concerns the target T1, QPCT (Homo sapiens, UniProt Q16769).
T1 construct: purchased Origine (so in the source)
As to the kind of experiment: Assay A: biochemical QPCT activity assay (MALDI-TOF MS, CD47 peptide substrate). The note with it: compounds of the invention; 0.5 nM enzyme, 20 μM CD47 peptide substrate; read-out: Inhibition of QPCT: IC50. Here is the method:
(§4) QPCT or QPCTL dependent conversion of N-terminal glutamine to pyroglutamate of CD47 was monitored via MALDI-TOF MS. Test compounds were dissolved in 100% DMSO and serially diluted into clear 1,536-well microtiter plates. Enzymatic reactions were set up in assay buffer containing 20 mM Tris pH 7.5, 0.1 mM TCEP, 0.01% BSA, and 0.001% Tween20. […] The plates were incubated for 10 min in a humidified incubator at 24° C. Subsequently, 2.5 μL of CD47 peptide substrate surrogate (^19[…]^33) was added to each well (final concentration: 10 μM for QPCTL/20 μM for QPCT). The plates were mixed for 30 sec at 1,000 rpm and subsequently incubated for 40 min in a humidified incubator at 24° C. […] The plates were sealed with an adhesive foil, mixed for 30 s at 1,000 rpm and stored at room temperature until preparation of the MALDI target plates. […] QPCT or QPCTL activity was monitored by calculating the ratio between product and internal standard signals followed by normalization to high (100% activity) and low (0% activity) controls. Determination of compound potencies was obtained by fitting the dose-response data to a four-parameter logistical equation.

The target of data set [4] is T2, QPCTL (Homo sapiens, UniProt Q9NXS2).
T2 construct: made in house
As to the kind of experiment: Assay A: biochemical QPCTL activity assay (MALDI-TOF MS, CD47 peptide substrate). The following applies: compounds of the invention; 0.5 nM enzyme, 10 μM CD47 peptide substrate; read-out: Inhibition of QPCTL: IC50. How it is done: as §4

The test system of data set [5] is SIRPα signalling induced by A549 cells. The data set can be described thus: Assay B: SIRPα signalling assay using A549 cells. The following applies: Homo sapiens; compounds of the invention; A549 cells 48 h, Jurkat PathHunter SIRPαV1 reporter cells 5 h; read-out: Inhibition of SIRPα signalling induced by A549 cells: IC50. Type of data set: cell-based. How it is done: as §1, §2, §3

pIC50: −log10 of the molar value.

T2 sequence (Q9NXS2 whole entry): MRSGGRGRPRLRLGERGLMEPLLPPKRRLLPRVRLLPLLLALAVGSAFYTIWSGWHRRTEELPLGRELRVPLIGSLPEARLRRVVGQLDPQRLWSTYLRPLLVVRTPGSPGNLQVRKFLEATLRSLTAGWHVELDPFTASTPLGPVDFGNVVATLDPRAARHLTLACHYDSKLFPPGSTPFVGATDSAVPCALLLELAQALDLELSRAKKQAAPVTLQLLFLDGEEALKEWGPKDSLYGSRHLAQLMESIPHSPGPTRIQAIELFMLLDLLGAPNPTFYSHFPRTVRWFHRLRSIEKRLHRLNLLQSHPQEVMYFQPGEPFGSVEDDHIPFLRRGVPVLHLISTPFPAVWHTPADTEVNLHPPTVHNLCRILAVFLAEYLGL
T1 sequence (Q16769 29-361): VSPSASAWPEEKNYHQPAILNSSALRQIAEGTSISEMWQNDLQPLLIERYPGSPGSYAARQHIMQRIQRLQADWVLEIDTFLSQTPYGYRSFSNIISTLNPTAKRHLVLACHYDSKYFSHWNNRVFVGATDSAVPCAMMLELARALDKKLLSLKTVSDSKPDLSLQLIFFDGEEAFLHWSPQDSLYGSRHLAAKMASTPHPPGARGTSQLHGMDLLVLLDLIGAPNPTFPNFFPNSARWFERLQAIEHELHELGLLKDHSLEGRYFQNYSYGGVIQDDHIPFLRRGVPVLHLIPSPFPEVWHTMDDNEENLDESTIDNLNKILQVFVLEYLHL

With `Cn1cnnc1C1(F)CCN(c2c(C#N)cc(C(C)(F)F)nc2-c2cnc3nn(C(C)(C)C)cc3c2)CC1` [Example 32], the pIC50 was 8.40 in data set [1], 9.00 in data set [3], 9.00 in data set [4] and 7.68 in data set [5]. For the same compound, the efflux ratio at 2 h in data set [2] was 8.2. In addition, the apical-to-basolateral permeability (Papp A→B) at 2 h in data set [2] worked out at 8.2 ×10⁻⁶ cm/s.
Take `Cn1cnnc1C1(F)CCN(c2c(C#N)cc(C(F)(F)F)nc2-c2cnc3nn(C(F)(F)F)nc3c2)CC1` [Example 9]: the pIC50 in data set [1] is 6.06; in data set [3] it was 7.00; in data set [4], 7.25; in data set [5], 6.44. Also, the efflux ratio at 2 h in data set [2] was found to be 1.4. In addition, the Papp A→B at 2 h in data set [2] amounted to 45 ×10⁻⁶ cm/s.
Turning to `Cn1cnnc1C1(F)CCN(c2c(C#N)cc(C3CC3)nc2-c2cnc3nn(C(C)(C)C)cc3c2)CC1` [Example 28], the pIC50 in data set [1] was 8.15; in data set [3], above 9.00; in data set [4] it was 9.00; in data set [5] it was 7.92. Also, the efflux ratio at 2 h in data set [2] was 3.8. Moreover, the apparent permeability from apical to basolateral (Papp A→B) at 2 h in data set [2] was determined as 19 ×10⁻⁶ cm/s.
In the case of `Cn1cnnc1C1(F)CCN(c2c(C#N)cc(C(C)(F)F)nc2-c2ccc(F)nc2)CC1` [Example 34], the negative logarithm of the IC50 (pIC50) is 7.43 in data set [1], 8.22 in data set [3], 8.70 in data set [4] and 7.70 in data set [5]. In data set [2], the efflux ratio at 2 h turned out to be 1.7. This compound also yielded a Papp A→B at 2 h in data set [2] of 23 ×10⁻⁶ cm/s.

The term pIC50 denotes the negative decadic logarithm of the IC50, by convention in mol/L. A word on the efflux ratio: it is a quotient of directional permeabilities that is used to spot active efflux. One may read the Papp A→B as the apparent permeability from the apical to the basolateral side of a cell layer. A low value points to poor permeation.
